Where two headings read alike, the source gives them in different places.
Assays:
[1] = biological target: T1, GppNHp-loaded KRAS4b (amino acids 1-169) G12C/C118S protein (Homo sapiens, UniProt P01116, C118S/G12C); experiment: Covalent cysteine 12 modification by MALDI-TOF MS, GppNHp-loaded KRAS G12C; format: binding; settings: 15 minutes reaction time point
T1 construct: KRAS4b (amino acids 1-169) G12C/C118S protein; made in house
In short: (§1)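 KRAS4b 1-169 G12C/C118S loaded with GDP, GppNHp or GTP was used at 1 μM in 20 mM HEPES, 150 mM NaCl, 1 mM MgCl2, pH 7.3, and incubated with compound (5 mM DMSO stock) at room temperature in the dark. % modification at 15 min is adduct peak height over total protein peak heights by linear-mode MALDI-TOF.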

[2] = biological target: T2, GTP-loaded KRAS4b (amino acids 1-169) G12C/C118S protein (Homo sapiens, UniProt P01116, C118S/G12C); experiment: Covalent cysteine 12 modification by MALDI-TOF MS, GTP-loaded KRAS G12C; format: binding; settings: 15 minutes reaction time point
T2 construct: KRAS4b (amino acids 1-169) G12C/C118S protein; made in house
Description: Reaction: 1 μM of GppNHp-, GTP-, or GDP-loaded KRAS4b (amino acids 1-169) G12C/C118S protein (produced in-house by Protein Expression Laboratory, FNLCR/Leidos Biomed) in 20 mM 4-(2-hydroxyethyl)-1-piperazineethanesulfonic acid (HEPES) buffer containing 150 mM NaCl, 1 mM MgCl2, pH 7.3 was prepared freshly before assay. Ten-μL aliquots of protein were dispensed onto low volume 384-well plate, then 375 nL DMSO, and 25 nL of tested compounds from 5 mM DMSO stocks were added to appropriate wells using ECHO 555 acoustic liquid handler (Labcyte Inc.). For each reaction/assay, three blanks were prepared by mixing 10 μL of protein solution with 400 nL DMSO. The contents of the wells were carefully mixed by aspiration, and then each plate was sealed with an adhesive cover, centrifuged at 2000 g for 1 minute, and kept in the dark at room temperature until 5 min, 15 min, 30 min, or 2 h collections.
Target pretreatment: Before each assay MALDI target (Bruker MPT 384 ground steel BC) was pre-treated by pipetting on each spot 0.75 μL of saturated sinapinic acid in acetonitrile (ACN).
Sample preparation: At collection time point, 2 μL of reaction mixtures were pipetted out into 20 μL MALDI matrix solution (saturated solution of sinapinic acid in 1:1 ACN:water solution containing 0.75% trifluoroacetic acid (TFA)) deposited on 384 well polypropylene plate. Resulting solution was mixed by aspiration, centrifuged at 2000 g for 1 minute, then 1 μL aliquots were dispensed on pre-treated MALDI target using Beckman Coulter Biomek FXP 96/384-Span-8 Laboratory Automation Workstation. Finally, the MALDI target was dried under mild vacuum to produce spots with fine crystalline structure.
Measurements: MALDI-TOF measurements were performed on a Bruker Daltonics rapiflex Tissuetyper TOF-TOF mass spectrometer using linear mode and mass range from 18.6 to 21.6 kDa. Detector gain was set to 3.3× (483 V), sample rate to 5 GS/s, real time smoothing to medium (175 MHz), laser smart beam pattern was set to: “MS Thin Layer M5”, and the laser frequency was 10000 Hz. Spectra were automatically collected using custom Auto Xecute method. Laser power was auto adjusted using fuzzy control. The peak selection range was set to be between 19000 and 21500 Da. Peak evaluation uses half width parameter set to be smaller than 40 Da for processed spectrograms (centroid peak detection; smoothed by SavitzkyGolay algorithm using 7 m/z width and 2 cycles; baseline was subtracted using median algorithm with flatness 1 and median level 0.01). Fuzzy control used Proteins/Oligonucleotides protocol with minimum half width 1/10 times above threshold. Up to 40000 satisfactory shots were collected in 10000 shot steps. Dynamic termination was implemented to finish data collection when peak signal/noise ratio was reaching value of 50.
Spectra processing: Spectra were smoothed by SavitzkyGolay algorithm using 7 m/z width and three cycles. Centroid peak detection algorithm was used with signal to noise threshold set to 6, relative intensity threshold 4%, peak width 10 m/z and median baseline subtraction using flatness of 1 and median level of 0.01. Peak intensity and area under the peak were evaluated and recorded for all peaks between 19,300 Da and 21,550 Da.
Calculation of percent modification: Percent modification was calculated as a ratio of peak height for protein modified by compound to sum of peak height of remaining protein plus peak height for protein modified by compound. If multiple modifications were observed each was calculated as a ratio of peak height for given modification versus sum of peak heights for all observed protein species. Data reported in Table 5 are from 15 minutes reaction time point.

[3] = biological target: T3, GDP-loaded KRAS4b (amino acids 1-169) G12C/C118S protein (Homo sapiens, UniProt P01116, C118S/G12C); experiment: Covalent cysteine 12 modification by MALDI-TOF MS, GDP-loaded KRAS G12C; format: binding; settings: 15 minutes reaction time point
T3 construct: KRAS4b (amino acids 1-169) G12C/C118S protein; made in house
In short: as §1

[4] = biological target: T4, Avi-KRAS G12C (1-169) GppNHp/RAF1 RBD-3×FLAG (52-151) (Homo sapiens, UniProt P01116, G12C); experiment: Raf1 RBD-KRAS G12C-GppNHp disruption (protein:protein interaction HTRF assay); format: biochemical
T4 construct: Avi-KRAS G12C (1-169) GppNHp/RAF1 RBD-3×FLAG (52-151)
In short: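 HTRF measuring disruption of 50 nM Avi-KRAS G12C (1-169) loaded with GppNHp binding RAF1 RBD-3×FLAG (52-151), in pH 7.5 Tris buffer with 5 mM MgCl2, 0.1% BSA, 10% DMSO. KRAS preincubated with compound 1 h, then RBD 1 h, then detection reagents 1 h, all at room temperature. Compound titration 30-0.02 μM; activity expressed as percent of DMSO control.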

pERK in NCI-H358 cells = experiment: Cell-based pERK HTRF assay; settings: 30 min incubation, read-out: pERK in NCI-H358 cell inhibition IC50
In short: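 Cells seeded at 4×10^4/well in RPMI with 10% FBS, then next day treated for 30 min with a 9-point, 3-fold series from 75 μM top concentration at 0.25% DMSO. Lysates were read for pERK by HTRF (d2/Eu cryptate antibodies) after 4–24 h at room temperature, emission at 615 nm.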

| Compound | GppNHp-KRAS G12C percent of modification [1] | GTP-KRAS G12C percent of modification [2] | GDP-KRAS G12C percent of modification [3] | IC50 [4] [nM] | IC50 (pERK in NCI-H358 cells; Homo sapiens, NCI-H358, 0.5 h) [nM] | IC50 (pERK in NCI-H358 cells) [nM] |
| --- | --- | --- | --- | --- | --- | --- |
| C=CC(=O)N1C[C@H](Oc2nc(OC[C@@]34CCCN3C[C@H](F)C4)nc3c(F)c(-c4ccc(F)c5sc(N)c(C#N)c45)ncc23)[C@@H](F)C1 [Compound 75] | A (percent of modification ≥70%) | A (percent of modification ≥70%) | A (percent of modification ≥70%) | ≤ 500 | ≤ 100 |  |
| C=CC(=O)N1CC[C@@H](Oc2nc(OC[C@@]34CCCN3C[C@H](F)C4)nc3c(F)c(-c4ccc(F)c5sc(N)c(C#N)c45)c(C(F)(F)F)cc23)[C@H]1C (single isomer, unassigned) [Compound 64] | D (percent of modification <10%) | D (percent of modification <10%) | D (percent of modification <10%) | > 20000 |  | > 1000 |
| C=CC(=O)N1CC[C@@H](Oc2nc(OC[C@@]34CCCN3C[C@H](F)C4)nc3c(Cl)c(-c4ccc(F)c5sc(N)c(C#N)c45)c(C#N)cc23)[C@H]1C [Compound 105] | A (percent of modification ≥70%) | B (50≤percent of modification <70%) | B (50≤percent of modification <70%) | ≤ 500 | ≤ 100 |  |
| C=CC(=O)N1CC[C@@H](Oc2nc(OC[C@@]34CCCN3C[C@H](F)C4)nc3c(F)c(-c4ccc(F)c5sc(N)c(C#N)c45)c(C(F)(F)F)cc23)[C@@H]1CC [Compound 115] | D (percent of modification <10%) | D (percent of modification <10%) | C (10%≤modification <50%) | 500 to 5000 | 100 to 1000 |  |
| C=CC(=O)N1CC[C@@H](Oc2nc(OC[C@@]34CCCN3C[C@H](F)C4)nc3cc(-c4ccc(F)c5sc(N)c(C#N)c45)c(F)cc23)[C@H]1C [Compound 109] | B (50≤percent of modification <70%) | C (10%≤modification <50%) | A (percent of modification ≥70%) |  | ≤ 100 |  |
| C=CC(=O)N1C[C@@H](F)[C@@H](Oc2nc(OC[C@@]34CCCN3C[C@H](F)C4)nc3c(F)c(-c4ccc(F)c5sc(N)nc45)c(C(F)(F)F)cc23)C1 [Compound 40, 1-((3S,4R)-3-((7-(2-amino-7-fluorobenzo[d]thiazol-4-yl)-8-fluoro-2-(((2R,7aS)-2-fluorotetrahydro-1H-pyrrolizin-7a (5H)-yl)methoxy)-6-(trifluoromethyl)quinazolin-4-yl)oxy)-4-fluoropyrrolidin-1-yl) prop-2-en-1-one] | A (percent of modification ≥70%) |  | A (percent of modification ≥70%) | ≤ 500 | ≤ 100 |  |
| C=CC(=O)N1C[C@H](Oc2nc(OC[C@@]34CCCN3C[C@H](F)C4)nc3c(F)c(-c4ccc(F)c5sc(N)nc45)c(C(F)(F)F)cc23)[C@@H](F)C1 [Compound 28, 1-((3S,4S)-3-((7-(2-amino-7-fluorobenzo[d]thiazol-4-yl)-8-fluoro-2-(((2R,7aS)-2-fluorotetrahydro-1H-pyrrolizin-7a (5H)-yl)methoxy)-6-(trifluoromethyl)quinazolin-4-yl)oxy)-4-fluoropyrrolidin-1-yl) prop-2-en-1-one] | A (percent of modification ≥70%) |  | A (percent of modification ≥70%) | ≤ 500 | ≤ 100 |  |
| C=CC(=O)N1CC[C@@H](Oc2nc(OC[C@@]34CCCN3C[C@H](F)C4)nc3c(F)c(-c4ccc(F)c5sc(N)nc45)c(C(F)(F)F)cc23)[C@@H]1C (atropisomer, axis not shown) [Compound 41] | C (10%≤modification <50%) |  | A (percent of modification ≥70%) | ≤ 500 |  | 100 to 1000 |
| C=CC(=O)N1CC[C@@H](Oc2nc(OC[C@@]34CCCN3C[C@H](F)C4)nc3c(F)c(-c4ccc(F)c5sc(N)nc45)c(C(F)(F)F)cc23)[C@@H]1C (atropisomer, axis not shown) [Compound 42] | D (percent of modification <10%) |  | D (percent of modification <10%) | > 20000 |  | > 1000 |
| CC#CC(=O)N1CC(Oc2nc(OC[C@@H]3CCCN3C)nc3c(F)c(-c4ccc(F)c5sc(N)nc45)c(Cl)cc23)C1 [Compound 2] | D (percent of modification <10%) |  | B (50≤percent of modification <70%) | 500 to 5000 | 100 to 1000 |  |
| C=CC(=O)N1CC[C@@H](Oc2nc(OC[C@@H]3CC4(CC4)CN3C)nc3c(F)c(-c4ccc(F)c5sc(N)nc45)c(C(F)(F)F)cc23)C1 (atropisomer, axis not shown) [Compound 25] | D (percent of modification <10%) |  | D (percent of modification <10%) | 5000 to 20000 |  | > 1000 |
| C=CC(=O)N1CC[C@@H](Oc2nc(OC[C@@H]3C[C@@H](OC)CN3C)nc3c(F)c(-c4ccc(F)c5sc(N)nc45)c(C(F)(F)F)cc23)C1 (single isomer, unassigned) [Compound 15] | D (percent of modification <10%) |  | D (percent of modification <10%) | > 20000 |  | > 1000 |
| C=CC(=O)N1CCC[C@@H](Oc2nc(OC[C@@H]3C[C@@H](F)CN3C)nc3c(F)c(-c4ccc(F)c5sc(N)nc45)c(C(F)(F)F)cc23)C1 (atropisomer, axis not shown) [Compound 21] | D (percent of modification <10%) |  | D (percent of modification <10%) | > 20000 |  | > 1000 |
| C=CC(=O)N1C[C@H](Oc2nc(OC[C@@]34CCCN3C[C@H](F)C4)nc3c(F)c(-c4ccc(F)c5sc(N)nc45)c(C(F)(F)F)cc23)C[C@H]1C (atropisomer, axis not shown) [Compound 37] | A (percent of modification ≥70%) |  | A (percent of modification ≥70%) | ≤ 500 | ≤ 100 |  |
